Patent US20230302036A1, “COMPOSITIONS FOR TREATMENT OF SPINAL MUSCULAR ATROPHY” (priority 2020, published 2023)
Oligonucleotides are written 5' to 3', each unit as a sugar letter and its base; * is a phosphorothioate linkage, no mark a phosphodiester; rarer units and linkages stand in square brackets, end groups in braces. Plain capitals give the bases only. e = 2'-O-(2-methoxyethyl) (MOE); [5mC] = 5-methylcytosine

Test system: H3K27 trimethylation over the SMN2 gene
Assay: ChIP-qPCR of H3K27 trimethylation over the SMN2 gene in HEK293T cells
Type: cell-based, human
Details: ASO1 transfection
Method: FIGS. 10A-10D show control experiments for the opposing roles of ASO1 on chromatin and splicing. […] Top: control Western blot for efficient expression of the c-Myc-SMN fusion protein encoded by plasmid pcDNA3.1+SMN1mycHIS (Addgene, cat.# 71687) using anti-tubulin (tub.) as loading control. Bottom: SMN2 E7 RT-PCR of cells co-transfected with ASO1 and plasmid. […] Distribution of these histone marks was assessed by ChIP-qPCR, with amplicons mapping near the numbered exons (E) and introns (i). Three independent immunoprecipitation replicates were conducted per experiment. Data are represented as mean ± S.D. (n = 5; in all cases p was much higher than 0.05, two-tailed Student’s t test). […] Top: control Western blot for efficient expression of the GFPRNaseH fusion protein encoded by plasmid pEGFP-RNASEH1 (Addgene, cat.# 108699), using anti-actin (act.) as loading control. Bottom: SMN2 E7 RT-PCR of cells co-transfected with ASO1 and the RNase H plasmid. […] Top: control Western blot for efficient AGO1 knockdown using anti-tubulin (tub.) as loading control. […]
Approximately 2×10^6 HEK293T cells per sample were treated for 10 min in 1% (v/v) formaldehyde at room temperature to crosslink protein-DNA complexes. […] Immunoprecipitated DNA (1.5 µl) and serial dilutions of the 10% input DNA (1:4, 1:20, 1: 100, and 1:500) were analyzed by SYBR-Green real-time qPCR.

ASO1: 5′-ATTCACTTTCATAATGCTGG-3′ 2′-O-methoxyethyl-modified oligonucleotide with phosphorothioate backbone and all 5-methyl cytosines; nusinersen variant with 2-nucleotide extension (antisense eA*eT*eT*e[5mC]*eA*e[5mC]*eT*eT*eT*e[5mC]*eA*eT*eA*eA*eT*eG*e[5mC]*eT*eG*eG)
H3K27 trimethylation over the SMN2 gene: not affected
